# Assay results taken from PMC4710522, “A Novel Triazolopyridine-Based Spleen Tyrosine Kinase Inhibitor That Arrests Joint Inflammation” (PLoS ONE, 2016).
# Where “and” joins values, the source holds several entries; their conditions need not be identical. Equal values may be shown once. Read-outs that look alike come from different tables or passages of the source.
# Assays:
# [1] = tested on: basophil activation in human whole blood; test: basophil human whole blood assay (CD63); type: cell-based
# Procedure: Assay was conducted according to the protocol for the BasoTest kit provided by supplier (Biocarta, San Diego, CA), with slight modification. Briefly, 100μl of heparinized human whole blood was added to each well of a 24-well deep plate (Microliter Analytical Supplies, Suwanee, GA) and preincubated with CC-509 for 30 minutes in a 37°C water bath. Basophils were stimulated with mite or dust extract (included in kit), or anti-IgE (diluted 1:10,000) for 20 minutes in a 37°C water bath and then on ice for 5 minutes. Cells were incubated in the FcεR receptor and CD63 antibody staining solution (included in kit) for 20 minutes on ice followed by agitation in a fixative/ red blood cell lysis buffer (included in kit) for 10 minutes at room temperature. Cells were washed twice with Basosalt solution (included in kit) and the final cell suspensions was transferred to U-bottom 96-well plates (BD Falcon, San Diego, CA) for analysis by flow cytometry on the FACSArray Bioanalyzer (BD Biosciences, San Jose, CA). Standard gating methods were used to identify basophils and to measure the mean intensity of CD63 fluorescence. FCS files were exported and analyzed as described in the Data Analysis section.
# For the TEL-Syk assay, the intensity values for the 700 and 800 channel were exported as text files in ActivityBase (IDBS, Guildford, UK) to derive the ratios that reflect kinase activity. For LAD2 experiments, enzyme activity values were exported as text files into ActivityBase to calculate “percent release” according to the formula: 100* supernatant OD405/ (supernatant OD405 + (pellet OD405*pellet dilution factor)). For the basophil and B-cells assays, flow cytometry data was exported from the FACS Array and processed using FloJo software package (TreeStar, Inc., Ashland, Oregon). For the JAK2 HEL and Ramos NFAT β-lactamase assays, the fluorescence values obtained at 460 nm and 530 nm were exported into ActivityBase to calculate response ratios. For the neutrophil, macrophage, KDR, and JAK1/3 assays, raw values were exported into ActivityBase to calculate percent inhibition. All IC50 calculations were generated using XLfit (IDBS, Guildford, UK) algorithm 205 within Excel. For PCA, the OD from the saline injected site was subtracted from the OD from the anti-DNP IgE injected site. Evans blue dye extravasation was expressed as mean ± SEM and % inhibition for the test article groups was normalized to the cromolyn positive control. For the CIA model paw measurements (left and right ankle diameter) were taken for each individual animal and averaged. The mean data from each group was plotted and either the AUC(day 11–18) or % inhibition on day 18 was calculated. Data is expressed as mean ± SEM of each group with n = 6–12. […]
# [2] = molecular target: T1, MAP3K8_h (Homo sapiens, UniProt P41279); test: SelectScreen kinase assay; type: biochemical; conditions: 100 µM ATP
# T1 construct: purchased Life Technologies (Invitrogen) SelectScreen, Z'-LYTE / Adapta
# Procedure: (§1) Syk kinase mode of inhibition studies, including parameters described in Fig 1, were conducted on the LC3000 platform by Caliper Life Sciences (Hopkinton, MA) according to standard protocols developed by the supplier. […] Non-kinase enzyme assays and GPCR, ion channel, and transporter binding assays were run by CEREP (France). Non-GLP manual patch clamp hERG assays were run by ChanTest (Cleveland, Ohio). Vivid® Assay kits (Life Technologies) were used to measure the cytochrome P450 inhibition of the compound against CYP3A, CYP2C9, CYP2C19, CYP2D6, and CYP1A2, as described.
# (§2) Kinase activity was measured using either the Z’-Lyte® or the Adapta® protocols as part of the SelectScreen™ profiling service offered at Life Technologies (Grand Island, NY). For the single point measurements (Part A), CC-509 was kept constant at 3 µM while ATP concentrations [ATP] used were at the KM for ATP (KM ATP) for that specific enyzme, at 10 or 100 µM ATP (10 ATP or 100 ATP, respectively), as indicated. Values expressed as percent control (% control) relative to DMSO-only wells (uninhibited, 100%).
# (§3) Kinase activity was measured using either the Z’-Lyte® or the Adapta® protocols as part of the SelectScreen™ profiling service offered at Life Technologies (Grand Island, NY). […] Values expressed as percent control (% control) relative to DMSO-only wells (uninhibited, 100%).
# [3] = molecular target: T2, PKC-betaII_h (Homo sapiens, UniProt P05771); test: SelectScreen kinase assay; type: biochemical; conditions: KM ATP
# T2 construct: purchased Life Technologies (Invitrogen) SelectScreen, Z'-LYTE / Adapta
# T2 sequence (P05771 1-673 isoform P05771-2): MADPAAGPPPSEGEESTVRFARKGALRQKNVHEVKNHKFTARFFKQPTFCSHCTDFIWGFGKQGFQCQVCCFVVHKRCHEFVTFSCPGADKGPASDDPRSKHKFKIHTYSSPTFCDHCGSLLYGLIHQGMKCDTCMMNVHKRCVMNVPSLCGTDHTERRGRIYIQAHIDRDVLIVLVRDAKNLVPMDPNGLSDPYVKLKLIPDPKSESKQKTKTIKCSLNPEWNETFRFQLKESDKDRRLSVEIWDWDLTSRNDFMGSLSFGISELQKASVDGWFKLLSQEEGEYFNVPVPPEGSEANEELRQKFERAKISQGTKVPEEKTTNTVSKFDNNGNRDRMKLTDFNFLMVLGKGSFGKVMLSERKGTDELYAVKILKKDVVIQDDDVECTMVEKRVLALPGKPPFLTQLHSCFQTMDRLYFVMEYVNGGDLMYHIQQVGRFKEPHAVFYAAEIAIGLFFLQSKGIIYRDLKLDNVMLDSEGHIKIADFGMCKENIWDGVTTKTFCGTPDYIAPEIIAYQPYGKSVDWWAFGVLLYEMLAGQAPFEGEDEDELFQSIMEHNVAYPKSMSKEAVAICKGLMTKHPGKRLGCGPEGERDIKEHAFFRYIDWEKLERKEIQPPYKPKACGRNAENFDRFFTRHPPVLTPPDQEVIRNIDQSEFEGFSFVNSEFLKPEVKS
# Procedure: as §1, §2, §3
# [4] = molecular target: T3, GRK6_h (Homo sapiens, UniProt P43250); test: SelectScreen kinase assay; type: biochemical; conditions: KM ATP
# T3 construct: purchased Life Technologies (Invitrogen) SelectScreen, Z'-LYTE / Adapta
# Procedure: as §1, §2, §3
# [5] = molecular target: T4, SGK_h (Homo sapiens, UniProt O00141); test: SelectScreen kinase assay; type: biochemical; conditions: KM ATP
# T4 construct: purchased Life Technologies (Invitrogen) SelectScreen, Z'-LYTE / Adapta
# T4 sequence (O00141 whole entry): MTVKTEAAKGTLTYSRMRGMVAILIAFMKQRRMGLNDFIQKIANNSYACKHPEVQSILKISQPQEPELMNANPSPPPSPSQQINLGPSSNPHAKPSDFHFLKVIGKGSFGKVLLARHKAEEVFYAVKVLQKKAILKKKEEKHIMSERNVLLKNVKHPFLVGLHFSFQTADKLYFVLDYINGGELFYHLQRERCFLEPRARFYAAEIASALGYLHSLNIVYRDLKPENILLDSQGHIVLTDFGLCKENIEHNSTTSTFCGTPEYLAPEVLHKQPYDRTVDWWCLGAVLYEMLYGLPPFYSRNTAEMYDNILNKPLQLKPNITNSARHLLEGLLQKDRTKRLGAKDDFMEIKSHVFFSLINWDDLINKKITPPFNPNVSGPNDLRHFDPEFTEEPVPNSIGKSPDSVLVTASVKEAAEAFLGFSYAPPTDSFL
# Procedure: as §1, §2, §3
# [6] = molecular target: T5, Arg_m (Mus musculus, UniProt Q4JIM5); test: SelectScreen kinase assay; type: biochemical; conditions: KM ATP
# T5 construct: purchased Life Technologies (Invitrogen) SelectScreen, Z'-LYTE / Adapta
# T5 sequence (Q4JIM5 2-1182 limits assumed): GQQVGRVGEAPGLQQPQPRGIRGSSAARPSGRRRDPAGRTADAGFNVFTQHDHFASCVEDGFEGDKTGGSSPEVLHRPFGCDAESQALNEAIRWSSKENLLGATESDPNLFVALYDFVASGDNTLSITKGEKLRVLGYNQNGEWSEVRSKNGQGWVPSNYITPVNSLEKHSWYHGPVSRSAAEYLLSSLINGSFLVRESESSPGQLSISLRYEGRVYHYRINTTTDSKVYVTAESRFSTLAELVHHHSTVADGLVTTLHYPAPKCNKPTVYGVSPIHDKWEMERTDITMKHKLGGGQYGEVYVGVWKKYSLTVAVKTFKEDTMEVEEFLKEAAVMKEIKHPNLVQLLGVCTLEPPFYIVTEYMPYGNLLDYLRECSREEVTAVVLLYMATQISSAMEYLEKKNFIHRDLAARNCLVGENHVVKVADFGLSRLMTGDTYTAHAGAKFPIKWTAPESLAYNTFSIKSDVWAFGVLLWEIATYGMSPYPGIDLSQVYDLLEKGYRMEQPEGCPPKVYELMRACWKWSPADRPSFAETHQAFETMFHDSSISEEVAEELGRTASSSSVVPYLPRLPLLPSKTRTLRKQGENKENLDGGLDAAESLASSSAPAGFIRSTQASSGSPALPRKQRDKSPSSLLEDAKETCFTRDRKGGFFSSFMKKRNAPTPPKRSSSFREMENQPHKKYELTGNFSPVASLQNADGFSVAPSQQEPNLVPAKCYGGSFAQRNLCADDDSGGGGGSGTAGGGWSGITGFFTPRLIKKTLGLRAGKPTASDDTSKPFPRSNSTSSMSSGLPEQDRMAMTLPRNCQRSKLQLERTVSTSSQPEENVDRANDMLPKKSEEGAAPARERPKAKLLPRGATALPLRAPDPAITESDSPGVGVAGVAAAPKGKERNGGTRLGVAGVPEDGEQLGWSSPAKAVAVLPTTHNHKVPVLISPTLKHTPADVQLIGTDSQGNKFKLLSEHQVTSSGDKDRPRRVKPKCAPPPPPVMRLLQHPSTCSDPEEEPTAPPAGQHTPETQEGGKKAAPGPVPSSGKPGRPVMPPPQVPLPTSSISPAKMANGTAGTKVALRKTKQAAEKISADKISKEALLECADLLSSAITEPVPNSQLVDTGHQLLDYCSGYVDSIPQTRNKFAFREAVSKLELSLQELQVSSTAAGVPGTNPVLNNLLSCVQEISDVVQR
# Procedure: as §1, §2, §3
# [7] = molecular target: T6, EEF2K_h (Homo sapiens, UniProt O00418); test: SelectScreen kinase assay; type: biochemical; conditions: KM ATP
# T6 construct: purchased Life Technologies (Invitrogen) SelectScreen, Z'-LYTE / Adapta
# T6 sequence (O00418 whole entry): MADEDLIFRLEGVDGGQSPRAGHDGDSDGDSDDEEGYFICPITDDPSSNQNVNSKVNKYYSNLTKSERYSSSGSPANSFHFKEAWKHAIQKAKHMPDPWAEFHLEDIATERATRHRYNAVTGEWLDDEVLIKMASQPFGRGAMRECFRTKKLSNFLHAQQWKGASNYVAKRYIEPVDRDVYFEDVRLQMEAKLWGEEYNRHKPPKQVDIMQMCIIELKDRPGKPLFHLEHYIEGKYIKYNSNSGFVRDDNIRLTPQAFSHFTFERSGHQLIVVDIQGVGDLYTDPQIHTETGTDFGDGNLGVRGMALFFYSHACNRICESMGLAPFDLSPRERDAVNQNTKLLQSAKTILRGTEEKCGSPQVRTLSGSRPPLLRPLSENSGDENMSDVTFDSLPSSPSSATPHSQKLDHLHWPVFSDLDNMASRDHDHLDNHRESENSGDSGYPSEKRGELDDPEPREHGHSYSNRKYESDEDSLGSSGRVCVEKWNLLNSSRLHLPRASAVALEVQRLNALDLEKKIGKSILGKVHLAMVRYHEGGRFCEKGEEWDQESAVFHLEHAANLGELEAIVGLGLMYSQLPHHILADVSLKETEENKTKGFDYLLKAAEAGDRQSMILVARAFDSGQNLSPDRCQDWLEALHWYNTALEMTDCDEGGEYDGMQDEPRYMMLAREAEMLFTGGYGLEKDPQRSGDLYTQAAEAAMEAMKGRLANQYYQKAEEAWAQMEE
# Procedure: as §1, §2, §3
# [8] = molecular target: T7, GRK5_h (Homo sapiens, UniProt P34947); test: SelectScreen kinase assay; type: biochemical; conditions: KM ATP
# T7 construct: purchased Life Technologies (Invitrogen) SelectScreen, Z'-LYTE / Adapta
# T7 sequence (P34947 whole entry): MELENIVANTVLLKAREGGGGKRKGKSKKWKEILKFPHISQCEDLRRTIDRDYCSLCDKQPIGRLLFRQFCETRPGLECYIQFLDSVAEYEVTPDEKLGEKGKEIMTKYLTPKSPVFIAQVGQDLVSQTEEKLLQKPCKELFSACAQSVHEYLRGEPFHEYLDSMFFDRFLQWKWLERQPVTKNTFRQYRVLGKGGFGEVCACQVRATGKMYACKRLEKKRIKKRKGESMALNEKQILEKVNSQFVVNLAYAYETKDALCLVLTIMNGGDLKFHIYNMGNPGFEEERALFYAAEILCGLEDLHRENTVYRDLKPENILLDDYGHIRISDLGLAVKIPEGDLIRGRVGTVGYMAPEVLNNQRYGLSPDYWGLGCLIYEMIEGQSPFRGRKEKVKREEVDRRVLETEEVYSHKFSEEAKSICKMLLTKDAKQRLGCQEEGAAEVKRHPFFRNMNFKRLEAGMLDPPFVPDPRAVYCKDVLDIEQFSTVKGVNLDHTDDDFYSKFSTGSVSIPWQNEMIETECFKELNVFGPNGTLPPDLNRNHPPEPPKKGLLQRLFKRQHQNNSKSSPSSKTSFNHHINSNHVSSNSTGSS
# Procedure: as §1, §2, §3
# [9] = molecular target: T8, GSG2 _h (Homo sapiens, UniProt Q8TF76); test: SelectScreen kinase assay; type: biochemical; conditions: KM ATP
# T8 construct: purchased Life Technologies (Invitrogen) SelectScreen, Z'-LYTE / Adapta
# T8 sequence (Q8TF76 whole entry): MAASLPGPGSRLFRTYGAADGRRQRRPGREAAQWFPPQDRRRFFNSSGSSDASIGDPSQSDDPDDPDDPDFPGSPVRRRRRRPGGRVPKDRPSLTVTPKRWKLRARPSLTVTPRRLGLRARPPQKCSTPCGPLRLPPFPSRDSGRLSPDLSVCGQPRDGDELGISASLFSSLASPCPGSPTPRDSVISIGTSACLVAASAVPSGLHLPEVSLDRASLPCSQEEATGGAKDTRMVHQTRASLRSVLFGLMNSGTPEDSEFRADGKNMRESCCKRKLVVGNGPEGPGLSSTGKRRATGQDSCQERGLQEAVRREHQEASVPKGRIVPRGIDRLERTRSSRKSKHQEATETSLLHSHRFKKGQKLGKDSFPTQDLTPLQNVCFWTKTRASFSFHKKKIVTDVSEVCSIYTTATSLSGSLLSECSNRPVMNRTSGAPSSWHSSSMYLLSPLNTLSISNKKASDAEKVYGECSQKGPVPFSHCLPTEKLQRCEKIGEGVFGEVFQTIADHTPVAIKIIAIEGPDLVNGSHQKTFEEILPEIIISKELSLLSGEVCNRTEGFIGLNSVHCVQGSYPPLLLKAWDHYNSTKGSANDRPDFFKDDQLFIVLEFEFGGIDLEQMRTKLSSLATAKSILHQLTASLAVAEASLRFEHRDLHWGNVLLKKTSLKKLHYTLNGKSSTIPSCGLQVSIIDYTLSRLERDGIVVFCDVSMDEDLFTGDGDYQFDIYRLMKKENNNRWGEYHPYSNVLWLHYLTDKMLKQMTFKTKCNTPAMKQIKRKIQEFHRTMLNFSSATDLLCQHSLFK
# Procedure: as §1, §2, §3
# [10] = molecular target: T9, PKC-alpha_h (Homo sapiens, UniProt P17252); test: SelectScreen kinase assay; type: biochemical; conditions: KM ATP
# T9 construct: purchased Life Technologies (Invitrogen) SelectScreen, Z'-LYTE / Adapta
# Procedure: as §1, §2, §3
# [11] = molecular target: T10, PKC-zeta_h (Homo sapiens, UniProt Q05513); test: SelectScreen kinase assay; type: biochemical; conditions: KM ATP
# T10 construct: purchased Life Technologies (Invitrogen) SelectScreen, Z'-LYTE / Adapta
# T10 sequence (Q05513 whole entry): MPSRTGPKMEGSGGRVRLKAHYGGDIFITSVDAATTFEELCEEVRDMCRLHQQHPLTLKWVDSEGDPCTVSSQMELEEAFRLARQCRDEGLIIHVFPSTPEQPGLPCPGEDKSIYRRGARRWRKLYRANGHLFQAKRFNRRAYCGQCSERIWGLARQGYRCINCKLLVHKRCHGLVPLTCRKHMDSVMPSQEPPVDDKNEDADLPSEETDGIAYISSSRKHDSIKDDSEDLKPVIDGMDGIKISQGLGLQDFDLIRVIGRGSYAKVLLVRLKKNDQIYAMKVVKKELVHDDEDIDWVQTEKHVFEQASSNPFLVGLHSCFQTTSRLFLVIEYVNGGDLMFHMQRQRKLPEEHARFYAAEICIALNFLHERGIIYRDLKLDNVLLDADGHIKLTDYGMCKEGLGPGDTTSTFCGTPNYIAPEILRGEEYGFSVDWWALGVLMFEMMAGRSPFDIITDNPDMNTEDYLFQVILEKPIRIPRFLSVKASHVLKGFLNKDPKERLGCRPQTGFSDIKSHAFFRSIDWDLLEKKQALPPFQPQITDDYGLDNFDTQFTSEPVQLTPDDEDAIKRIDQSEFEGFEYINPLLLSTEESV
# Procedure: as §1, §2, §3
# [12] = molecular target: T11, Blk_m (Mus musculus, UniProt P16277); test: SelectScreen kinase assay; type: biochemical; conditions: KM ATP
# T11 construct: purchased Life Technologies (Invitrogen) SelectScreen, Z'-LYTE / Adapta
# Procedure: as §1, §2, §3
smiles,measurement,setting,value
"COc1cc(Nc2ncc(F)c(Nc3ccc4c(n3)NC(=O)C(C)(C)O4)n2)cc(OC)c1OC [R406, reference compound]","IC50, FcεR-dependent basophil activation (CD63)","[1]; human whole blood, mean ± SD, minimum n = 3",not active
same,% control,[2]; 3 µM,52%
same,% control,[3]; 3 µM,19%
same,% control,[4]; 3 µM,100%
same,% control,[5]; 3 µM,94%
same,% control,[6]; 3 µM,34%
same,% control,[7]; 3 µM,92%
same,% control,[8]; 3 µM,108%
same,% control,[9]; 3 µM,64%
same,% control,[10]; 3 µM,42%
same,% control,[11]; 3 µM,100% and 101%
same,% control,[12]; 3 µM,11%
"c1cc(CC2CCOCC2)n2nc(Nc3ccc4c(NC5CCOCC5)n[nH]c4c3)nc2c1 [CC-509, [3-(2H-3,4,5,6-tetrahydropyran-4-ylamino)(1H-indazol-6-yl)][5-(2H-3,4,5,6-tetrahydropyran-4-ylmethyl)(2H-1,2,4-triazolo[1,5-a]pyridin-2-yl)]amine]",IC50,"[1]; Homo sapiens, HWB Basophils FcεR, curve shown in figure, read-out: IC50 printed in Fig 3D panel",1610 nM
same,FcεR-independent basophil activation,"[1]; N-formyl-L-methionyl-L-leucyl-L-phenylalanine stimulation, data not shown",not affected
same,IC50,"[1]; human whole blood, mean ± SD, minimum n = 3, read-out: IC50, FcεR-dependent basophil activation (CD63)",1520 ± 1050 nM
same,remaining activity at 3 µM,[2]; read-out: % control,79%
same,remaining activity at 3 µM,[3]; read-out: % control,43%
same,remaining activity at 3 µM,[4]; read-out: % control,92%
same,remaining activity at 3 µM,[5]; read-out: % control,96%
same,remaining activity at 3 µM,[6]; read-out: % control,31%
same,remaining activity at 3 µM,[7]; read-out: % control,94%
same,remaining activity at 3 µM,[8]; read-out: % control,96%
same,remaining activity at 3 µM,[9]; read-out: % control,100%
same,remaining activity at 3 µM,[10]; read-out: % control,71%
same,remaining activity at 3 µM,[11]; read-out: % control,86%
same,remaining activity at 3 µM,[12]; read-out: % control,63%
